In the NIST ThermoML archive (doi:10.1021/acs.jced.5b00367):

Assay: wn = mass fraction of the nth substance listed
Settings: 101 kPa, Liquid, Alternating current cell with electrodes, w1 = 0.01

CCCCCCCCCC[N+](CC)(CC)CCCCCCCCCC.[Br-] [didecyldiethylammonium bromide] + O
Settings	electrical conductivity [S/m]
277.55 K	0.0116
277.75 K	0.0115
277.85 K	0.0116
277.95 K	0.0116
278.15 K	0.0117
278.25 K	0.0117
278.35 K	0.0117
278.45 K	0.0116
278.55 K	0.0116
278.65 K	0.0116
278.75 K	0.0117
278.85 K	0.0117
279.05 K	0.0118
279.15 K	0.0118
279.25 K	0.0118
279.35 K	0.0119
279.55 K	0.012
279.65 K	0.012
279.85 K	0.012
279.95 K	0.012
280.15 K	0.0121
280.25 K	0.0121
280.35 K	0.0122
280.45 K	0.0122
280.55 K	0.0123
280.65 K	0.0123
280.75 K	0.0123
280.95 K	0.0123
281.05 K	0.0124
281.15 K	0.0124
281.25 K	0.0124
281.35 K	0.0125
281.45 K	0.0126
281.55 K	0.0126
281.65 K	0.0127
281.75 K	0.0127
281.85 K	0.0127
281.95 K	0.0127
282.05 K	0.0128
282.15 K	0.0129
282.35 K	0.0128
282.45 K	0.0129
282.55 K	0.013
282.65 K	0.013
282.75 K	0.0131
282.85 K	0.0131
282.95 K	0.0131
283.05 K	0.0132
283.15 K	0.0132
283.25 K	0.0133
283.35 K	0.0133
283.45 K	0.0134
283.55 K	0.0134
283.75 K	0.0135
283.85 K	0.0136
283.95 K	0.0136
284.05 K	0.0136
284.15 K	0.0137
284.25 K	0.0137
284.35 K	0.0138
284.45 K	0.0139
284.55 K	0.0138
284.65 K	0.0139
284.75 K	0.014
284.85 K	0.0141
284.95 K	0.0141
285.05 K	0.0143
285.15 K	0.0143
285.25 K	0.0142
285.35 K	0.0144
285.45 K	0.0145
285.55 K	0.0146
285.65 K	0.0146
285.75 K	0.0148
285.85 K	0.0147
285.95 K	0.015
286.05 K	0.015
286.15 K	0.0152
286.25 K	0.0152
286.35 K	0.0154
286.45 K	0.0155
286.55 K	0.0157
286.65 K	0.0158
286.75 K	0.016
286.85 K	0.0161
286.95 K	0.0164
287.05 K	0.0164
287.15 K	0.0167
287.25 K	0.0169
287.35 K	0.0172
287.45 K	0.0175
287.55 K	0.0177
287.65 K	0.0179
287.75 K	0.0182
287.85 K	0.0186
287.95 K	0.0189
288.05 K	0.0192
288.15 K	0.0196
288.25 K	0.0201
288.35 K	0.0206
288.45 K	0.021
288.55 K	0.0213
288.65 K	0.0218
288.75 K	0.022
288.85 K	0.0225
288.95 K	0.0227
289.05 K	0.0228
289.15 K	0.0233
289.25 K	0.0238
289.35 K	0.0241
289.45 K	0.0243
289.55 K	0.0249
289.75 K	0.0256
289.85 K	0.0262
289.95 K	0.0267
290.05 K	0.0274
290.15 K	0.028
290.25 K	0.0287
290.35 K	0.0297
290.45 K	0.0305
290.55 K	0.0311
290.65 K	0.0319
290.75 K	0.0329
290.85 K	0.0339
290.95 K	0.0352
291.15 K	0.0365
291.25 K	0.0379
291.35 K	0.0395
291.45 K	0.0401
291.55 K	0.0419
291.65 K	0.0447
291.75 K	0.0451
291.85 K	0.047
291.95 K	0.0496
292.05 K	0.0526
292.15 K	0.0559
292.25 K	0.0648
292.35 K	0.0649
292.45 K	0.0649
292.55 K	0.0676
292.65 K	0.0687
292.75 K	0.0704
292.85 K	0.0711
292.95 K	0.0714
293.05 K	0.0718
293.15 K	0.0718
293.35 K	0.0721
293.45 K	0.0722
293.55 K	0.0723
293.65 K	0.0724
293.75 K	0.0725
293.85 K	0.0726
293.95 K	0.0726
294.05 K	0.0727
294.15 K	0.0728
294.35 K	0.0729
294.45 K	0.073
294.55 K	0.0731
294.65 K	0.0732
294.75 K	0.0732
294.85 K	0.0733
294.95 K	0.0734
295.05 K	0.0735
295.15 K	0.0737
295.25 K	0.0736
295.35 K	0.0738
295.45 K	0.0739
295.55 K	0.074
295.65 K	0.074
295.75 K	0.0741
295.85 K	0.0741
295.95 K	0.0742
296.05 K	0.0743
296.15 K	0.0744
296.25 K	0.0746
296.35 K	0.0745
296.45 K	0.0746
296.55 K	0.0748
296.65 K	0.0748
296.75 K	0.0749
296.85 K	0.075
296.95 K	0.075
297.05 K	0.0752
297.15 K	0.0752
297.25 K	0.0752
297.35 K	0.0754
297.45 K	0.0755
297.55 K	0.0755
297.65 K	0.0757
297.75 K	0.0757
297.85 K	0.0758
297.95 K	0.0759
298.05 K	0.076
301.15 K	0.0789
301.25 K	0.079
301.35 K	0.0792
301.55 K	0.0794
301.65 K	0.0795
301.75 K	0.0795
301.95 K	0.0797
302.05 K	0.0799
302.15 K	0.08
302.25 K	0.0801
302.35 K	0.0802
302.45 K	0.0802
302.55 K	0.0803
302.65 K	0.0803
302.85 K	0.0806
302.95 K	0.0807
303.15 K	0.0809
303.25 K	0.0811
303.35 K	0.0811
303.45 K	0.0812
303.55 K	0.0814
303.75 K	0.0816
303.85 K	0.0817
304.05 K	0.0818
304.15 K	0.0819
304.35 K	0.0821
304.55 K	0.0823
304.75 K	0.0825
304.85 K	0.0826
304.95 K	0.0827
305.05 K	0.0829
305.35 K	0.0831
305.55 K	0.0831
305.75 K	0.0836
305.85 K	0.0838
306.05 K	0.0839
306.25 K	0.084
306.35 K	0.0841
306.45 K	0.0842
306.65 K	0.0843
306.75 K	0.0845
306.95 K	0.0848
307.05 K	0.0849
307.25 K	0.0851
307.55 K	0.0854
307.65 K	0.0855
307.85 K	0.0857
308.15 K	0.086
308.25 K	0.0861
308.35 K	0.0862
308.55 K	0.0862
308.75 K	0.0864
308.85 K	0.0866
309.15 K	0.0871
309.35 K	0.0872
309.55 K	0.0874
309.75 K	0.0876
309.85 K	0.0877
309.95 K	0.0878
310.25 K	0.088
310.45 K	0.0882
310.55 K	0.0883
310.65 K	0.0884
310.95 K	0.0888
311.05 K	0.089
311.25 K	0.0893
311.45 K	0.0894
311.65 K	0.0894
311.75 K	0.0896
311.85 K	0.0897
312.15 K	0.09
312.35 K	0.0901
312.45 K	0.0902
312.55 K	0.0904
312.75 K	0.0906
312.95 K	0.0908
313.15 K	0.091
